Source: patent publication US11198695B2, “Fused ring derivative having MGAT-2 inhibitory activity” (Shionogi & Co., Ltd., priority 2017, dated 2021)
Converted amounts (≈) assume the structure as drawn.

Assays:
[1] = Solubility test (1% DMSO addition, pH 6.8 artificial intestinal juice); assay type: physicochemical; conditions: pH 6.8 artificial intestinal juice with 1% DMSO, kinetic from dmso stock, 16 hours at 25° C.
Protocol: The solubility of the compound of the present invention was determined under 1% DMSO addition conditions. 10 mmol/L solution of the compound was prepared with DMSO, and 6 μL of the solution of the compound of the present invention was added to 594 μL of pH 6.8 artificial intestinal juice (118 mL of 0.2 mol/L NaOH test solution and water were added to 250 mL of 0.2 mol/L potassium dihydrogen phosphate test solution to reach 1000 mL). The mixture was left standing for 16 hours at 25° C., and the mixture was vacuum-filtered. The filtrate was two-fold diluted with methanol/water=1/1 (V/V), and the compound concentration in the filtrate was measured with HPLC or LC/MS/MS by the absolute calibration method.

[2] = Metabolism stability test; assay type: in vitro ADME; conditions: human liver microsomes, 30 minutes, 37° C., NADPH, 0.5 μmol/L of test compound
Protocol: Using commercially available pooled human hepatic microsomes, the compound of the present invention was reacted for a constant time, a remaining rate was calculated by comparing a reacted sample and an unreacted sample, thereby, a degree of metabolism of the compound of the present invention in liver was assessed.
A reaction was performed (oxidative reaction) at 37° C. for 0 minute or 30 minutes in the presence of 1 mmol/L NADPH in 0.2 mL of a buffer (50 mmol/L Tris-HCl pH 7.4, 150 mmol/L potassium chloride, 10 mmol/L magnesium chloride) containing 0.5 mg protein/mL of human liver microsomes. After the reaction, 50 μL of the reaction solution was added to 100 μL of a methanol/acetonitrile=1/1 (v/v) solution, mixed and centrifuged at 3000 rpm for 15 minutes. The compound of the present invention in the supernatant was quantified by LC/MS/MS, and a remaining amount of the compound of the present invention after the reaction was calculated, letting a compound amount at 0 minute reaction time to be 100%. (Result) Remaining rate was shown at 0.5 μmol/L of test compound.

[3] = target: hERG channel (IKr) (Homo sapiens (Human), UniProt Q12809); test: hERG test; assay type: cell-based; conditions: pH 7.4, CHO cells expressing hERG channel, 10 μmol/L of test compound, read-out: % inhibition of tail peak current (IKr)
Chain of hERG channel (IKr) (Q12809 whole entry): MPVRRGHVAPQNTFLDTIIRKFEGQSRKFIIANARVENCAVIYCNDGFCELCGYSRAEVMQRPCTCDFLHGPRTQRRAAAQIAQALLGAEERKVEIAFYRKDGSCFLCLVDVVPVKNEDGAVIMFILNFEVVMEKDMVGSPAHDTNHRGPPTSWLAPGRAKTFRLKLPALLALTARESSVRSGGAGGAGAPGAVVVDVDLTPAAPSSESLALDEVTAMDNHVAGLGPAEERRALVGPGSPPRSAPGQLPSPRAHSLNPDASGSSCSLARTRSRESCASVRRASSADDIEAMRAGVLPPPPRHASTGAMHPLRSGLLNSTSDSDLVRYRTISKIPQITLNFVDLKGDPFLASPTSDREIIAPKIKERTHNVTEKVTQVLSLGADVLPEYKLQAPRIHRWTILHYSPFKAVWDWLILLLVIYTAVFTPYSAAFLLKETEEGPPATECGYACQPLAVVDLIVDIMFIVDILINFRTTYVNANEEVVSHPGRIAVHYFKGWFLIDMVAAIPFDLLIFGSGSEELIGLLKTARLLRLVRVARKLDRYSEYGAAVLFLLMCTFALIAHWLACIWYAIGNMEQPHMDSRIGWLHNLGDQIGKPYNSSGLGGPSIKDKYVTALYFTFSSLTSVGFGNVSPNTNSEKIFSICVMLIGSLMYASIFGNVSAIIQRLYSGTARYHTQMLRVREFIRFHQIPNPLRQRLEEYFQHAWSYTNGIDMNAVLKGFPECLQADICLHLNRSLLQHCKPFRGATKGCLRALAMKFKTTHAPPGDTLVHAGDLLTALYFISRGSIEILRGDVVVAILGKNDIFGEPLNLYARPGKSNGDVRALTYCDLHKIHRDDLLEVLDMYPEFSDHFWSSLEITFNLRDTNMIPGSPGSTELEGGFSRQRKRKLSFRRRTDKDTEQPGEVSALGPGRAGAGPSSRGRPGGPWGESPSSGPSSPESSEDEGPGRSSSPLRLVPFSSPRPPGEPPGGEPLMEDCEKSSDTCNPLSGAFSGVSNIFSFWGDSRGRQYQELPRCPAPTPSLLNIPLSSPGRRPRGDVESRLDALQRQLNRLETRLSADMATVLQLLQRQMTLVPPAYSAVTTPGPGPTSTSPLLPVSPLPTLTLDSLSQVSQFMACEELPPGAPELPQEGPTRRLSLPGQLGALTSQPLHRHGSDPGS
Description: For the purpose of assessing risk of an electrocardiogram QT interval prolongation of the compound of the present invention, effects of the compound of the present invention on delayed rectifier K^+ current (IKr), which plays an important role in the ventricular repolarization process, was studied using CHO cells expressing human ether-a-go-go related gene (hERG) channel.
After a cell was retained at a membrane potential of −80 mV by whole cell patch clamp method using an automated patch clamp system (QPatch; Sophion BIoscience A/S), IKr induced by application of a leak potential of −50 mV followed by depolarization pulse stimulation at +20 mV for 2 seconds and, further, repolarization pulse stimulation at −50 mV for 2 seconds, was recorded. […] From the recording IKr, an absolute value of the tail peak current was measured based on the current value at the resting membrane potential using analysis software (Falster Patch; Sophion Bioscience A/S). Further, the % inhibition of tail peak current for the compound of the present invention relative to the tail peak current after application of the vehicle is calculated to assess influence of the compound of the present invention on IKr. (Result) % inhibition was shown at 10 μmol/L of test compound.

[4] = Powder solubility test; assay type: physicochemical; conditions: pH 6.8, aqueous buffer, thermodynamic from solid, JP-2 solution, 37° C.
Protocol: Appropriate quantity of the compound of the present invention was put in suitable containers. 200 μL of JP-1 solution (water was added to 2.0 g of sodium chloride and 7.0 mL of hydrochloric acid to reach 1000 mL), 200 μL of JP-2 solution (500 mL of water was added to 500 mL of phosphate buffer (pH 6.8)) or 20 mmol/L sodium taurocholate (TCA)/JP-2 solution (JP-2 solution was added to 1.08 g of TCA to reach 100 mL) was independently added to each container. When total amount was dissolved after adding the test reagent, the compound of the present invention was added appropriately. After sealing and shaking at 37° C. for 1 hour, solution is filtrated and 100 μL of methanol is added to 100 μL of each filtrate to dilute two-fold. The dilution rate is changed as necessary. After checking that there was no bubble and deposit, the container was sealed and shaken. The compound of the present invention was measured using HPLC by absolute calibration curve method.

[5] = target: recombinant human MGAT2 (Homo sapiens (Human), UniProt Q3SYC2); test: Measurement of human MGAT2 inhibitory activity; assay type: biochemical; conditions: read-out: IC50 (concentration exhibiting 50% enzyme inhibition), Table 53
Chain of recombinant human MGAT2 (Q3SYC2 whole entry): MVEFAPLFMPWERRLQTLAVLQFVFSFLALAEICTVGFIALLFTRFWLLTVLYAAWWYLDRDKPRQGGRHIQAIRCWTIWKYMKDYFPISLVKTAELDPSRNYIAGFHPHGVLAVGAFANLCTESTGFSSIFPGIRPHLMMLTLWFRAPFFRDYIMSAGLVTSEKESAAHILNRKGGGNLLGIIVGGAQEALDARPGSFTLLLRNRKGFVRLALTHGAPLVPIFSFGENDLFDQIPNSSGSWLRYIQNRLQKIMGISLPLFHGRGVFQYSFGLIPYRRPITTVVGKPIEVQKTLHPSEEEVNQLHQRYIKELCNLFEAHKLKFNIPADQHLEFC
Summary of the method: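 Membrane fraction of Sf9 cells expressing N-terminally Flag-tagged full-length human MGAT2, incubated 1 h at room temperature in 100 mmol/L phosphate pH 7.4 with 2 mmol/L DTT. The substrate solution held 30 μmol/L 2-oleoylglycerol and 10 μmol/L oleoyl-CoA. Diolein product was quantified by RapidFire ESI Q-TOF MS against diolein-d5 internal standard; % inhibition was set relative to with/without-enzyme controls.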

[6] = BA test (oral absorption); assay type: in vivo; conditions: plasma; oral vs intravenous administration, mice or SD rats
Protocol: Materials and Methods for Experiments to Evaluate Oral Absorption
(1) Animals: the mice or SD rats were used.
(2) Breeding conditions: the mice or SD rats were allowed to freely take solid food and sterilized tap water.
(3) Setting of dosage and grouping: Oral administration and intravenous administration were performed with a predetermined dosage. Grouping was set as below. (dosage changed per compound)
Oral administration: 1 to 30 mg/kg (n=2 to 3)
Intravenous administration: 0.5 to 10 mg/kg (n=2 to 3)
(4) Preparation of administration solution: Oral administration was performed in the form of a suspension or a solution. Intravenous administration was performed after solubilization.
(5) Routes of administration: Oral administration was performed mandatory into the stomach by oral sonde. […]
(6) Evaluation items: blood was collected over time, and the plasma concentration of the compound of the present invention was measured by LC/MS/MS.
(7) Statistical analysis: regarding the transition of the plasma concentration of the compound of the present invention, the area under the plasma concentration-time curve (AUC) was calculated by non-linear least squares program WinNonlin (registered trademark), and the bioavailability (BA) of the compound of the present invention was calculated from the AUCs of the oral administration group and intravenous administration group.

[7] = target: CYP2C19 (Homo sapiens (Human), UniProt P33261); test: CYP inhibition test (mephenytoin 4'-hydroxylation); assay type: in vitro ADME; conditions: pooled human liver microsomes
Chain of CYP2C19 (P33261 whole entry): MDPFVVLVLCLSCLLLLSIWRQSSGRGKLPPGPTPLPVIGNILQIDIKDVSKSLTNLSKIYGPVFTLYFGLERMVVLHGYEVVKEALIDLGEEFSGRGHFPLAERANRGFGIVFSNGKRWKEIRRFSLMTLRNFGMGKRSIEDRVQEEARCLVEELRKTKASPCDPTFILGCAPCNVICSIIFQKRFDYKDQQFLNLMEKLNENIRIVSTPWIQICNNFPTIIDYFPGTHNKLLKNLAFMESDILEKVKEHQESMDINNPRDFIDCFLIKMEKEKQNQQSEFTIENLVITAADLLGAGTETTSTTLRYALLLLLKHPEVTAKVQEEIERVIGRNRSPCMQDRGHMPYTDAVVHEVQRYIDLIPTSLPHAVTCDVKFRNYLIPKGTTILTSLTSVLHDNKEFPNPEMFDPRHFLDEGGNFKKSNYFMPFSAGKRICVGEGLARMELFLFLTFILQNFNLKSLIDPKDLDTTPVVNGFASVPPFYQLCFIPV
Description: (§1) Using commercially available pooled human hepatic microsome, and employing, as markers, 7-ethoxyresorufin O-deethylation (CYP1A2), tolbutamide methyl-hydroxylation (CYP2C9), mephenytoin 4′-hydroxylation (CYP2C19), dextromethorphan O-demethylation (CYP2D6), and terfenadine hydroxylation (CYP3A4) as typical substrate metabolism reactions of human main five CYP enzyme forms (CYP1A2, 2C9, 2C19, 2D6, 3A4), an inhibitory degree of each metabolite production amount by the compound of the present invention was assessed. […]
(§2) As a reaction solution, each five kinds of substrates, human liver microsomes, or compound of the present invention in 50 mmol/L Hepes buffer were added to a 96-well plate at the composition as described above, and NADPH, as a cofactor was added to initiate metabolism reactions. […] After the centrifugation at 3000 rpm for 15 minutes, resorufin (CYP1A2 metabolite) in the supernatant was quantified by a fluorescent multilabel counter or LC/MS/MS, and tolbutamide hydroxide (CYP2C9 metabolite), mephenytoin 4′ hydroxide (CYP2C19 metabolite), dextrorphan (CYP2D6 metabolite), and terfenadine alcohol (CYP3A4 metabolite) were quantified by LC/MS/MS.
(§3) Addition of only DMSO being a solvent dissolving a drug to a reaction system was adopted as a control (100%). Remaining activity (%) was calculated. […]

[8] = target: T1, CYP3A4 (Homo sapiens (Human), UniProt P08684); test: CYP3A4 (MDZ) MBI test; assay type: in vitro ADME; conditions: pooled human liver microsomes, preincubation 0 or 30 min
T1 sequence (P08684 whole entry): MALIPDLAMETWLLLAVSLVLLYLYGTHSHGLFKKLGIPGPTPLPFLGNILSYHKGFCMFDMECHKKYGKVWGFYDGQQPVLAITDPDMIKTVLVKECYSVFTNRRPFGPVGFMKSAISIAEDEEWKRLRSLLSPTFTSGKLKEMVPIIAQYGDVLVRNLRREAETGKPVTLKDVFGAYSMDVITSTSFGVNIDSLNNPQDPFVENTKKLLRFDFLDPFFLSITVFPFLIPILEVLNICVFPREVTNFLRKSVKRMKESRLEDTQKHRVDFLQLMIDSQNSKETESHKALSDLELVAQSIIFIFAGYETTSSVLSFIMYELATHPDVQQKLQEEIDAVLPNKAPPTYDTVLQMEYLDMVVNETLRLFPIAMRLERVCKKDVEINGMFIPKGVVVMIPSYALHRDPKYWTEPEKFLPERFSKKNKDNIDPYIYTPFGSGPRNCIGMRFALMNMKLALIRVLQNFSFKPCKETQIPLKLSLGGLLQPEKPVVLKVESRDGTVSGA
Protocol: CYP3A4 (MDZ) MBI test is a test of investigating mechanism based inhibition (MBI) potential on CYP3A4 by the enhancement of inhibitory degree of a metabolic reaction caused by the compound of the present invention. CYP3A4 inhibition was evaluated using pooled human liver microsomes by 1-hydroxylation reaction of midazolam (MDZ) as a marker reaction. […]
Pooled human liver microsomes and a solution of the compound of the present invention in K-Pi buffer (pH 7.4) as a pre-reaction solution were added to a 96-well plate at the composition of the pre-reaction. […] The plate on which each index reaction had been performed was centrifuged at 3000 rpm for 15 minutes, and thereafter 1-hydroxylated midazolam in the supernatant was quantified by LC/MS/MS.
The sample adding DMSO as a solvent to a reaction system instead of a solution dissolving the compound of the present invention was adopted as a control (100%). Remaining activity (%) was calculated at each concentration of the compound of the present invention compared to a control, and IC value was calculated by reverse-presumption by a logistic model using a concentration and an inhibition rate. […]

[9] = target: T1, CYP3A4; test: CYP inhibition test (terfenadine hydroxylation); assay type: in vitro ADME; conditions: pooled human liver microsomes
Description: as §1, §2, §3

[10] = target: CYP2D6 (Homo sapiens (Human), UniProt P10635); test: CYP inhibition test (dextromethorphan O-demethylation); assay type: in vitro ADME; conditions: pooled human liver microsomes
Chain of CYP2D6 (P10635 whole entry): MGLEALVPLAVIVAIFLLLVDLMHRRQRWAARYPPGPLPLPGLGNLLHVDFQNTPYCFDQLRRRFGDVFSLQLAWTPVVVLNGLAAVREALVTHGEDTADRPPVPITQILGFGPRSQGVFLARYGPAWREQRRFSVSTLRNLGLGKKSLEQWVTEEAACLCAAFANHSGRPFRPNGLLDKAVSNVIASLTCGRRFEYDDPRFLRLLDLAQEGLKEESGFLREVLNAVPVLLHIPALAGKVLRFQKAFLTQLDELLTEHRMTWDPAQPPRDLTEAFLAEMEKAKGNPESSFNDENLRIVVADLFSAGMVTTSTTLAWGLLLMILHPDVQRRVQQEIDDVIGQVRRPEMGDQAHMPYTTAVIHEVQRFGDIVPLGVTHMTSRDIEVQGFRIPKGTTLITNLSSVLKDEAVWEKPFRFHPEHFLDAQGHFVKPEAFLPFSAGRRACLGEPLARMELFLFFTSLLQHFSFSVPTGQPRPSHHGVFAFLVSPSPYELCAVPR
Description: as §1, §2, §3

[11] = target: CYP1A2 (Homo sapiens (Human), UniProt P05177); test: CYP inhibition test (7-ethoxyresorufin O-deethylation); assay type: in vitro ADME; conditions: pooled human liver microsomes
Chain of CYP1A2 (P05177 whole entry): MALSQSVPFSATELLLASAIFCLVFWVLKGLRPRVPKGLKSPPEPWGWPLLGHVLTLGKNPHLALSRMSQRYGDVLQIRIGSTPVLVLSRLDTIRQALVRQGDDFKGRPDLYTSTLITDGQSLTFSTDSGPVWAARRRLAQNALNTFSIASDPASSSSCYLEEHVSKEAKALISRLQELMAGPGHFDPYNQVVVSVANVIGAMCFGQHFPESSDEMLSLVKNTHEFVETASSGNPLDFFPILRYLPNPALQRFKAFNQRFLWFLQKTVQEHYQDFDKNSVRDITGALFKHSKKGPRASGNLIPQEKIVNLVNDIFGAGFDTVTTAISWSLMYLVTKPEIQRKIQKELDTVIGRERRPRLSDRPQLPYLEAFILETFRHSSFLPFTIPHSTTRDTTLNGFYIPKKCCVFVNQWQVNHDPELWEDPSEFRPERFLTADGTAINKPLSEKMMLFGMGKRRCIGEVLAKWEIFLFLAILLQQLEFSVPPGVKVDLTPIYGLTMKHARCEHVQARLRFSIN
Description: as §1, §2, §3

[12] = target: CYP2C9 (Homo sapiens (Human), UniProt P11712); test: CYP inhibition test (tolbutamide methyl-hydroxylation); assay type: in vitro ADME; conditions: pooled human liver microsomes
Chain of CYP2C9 (P11712 whole entry): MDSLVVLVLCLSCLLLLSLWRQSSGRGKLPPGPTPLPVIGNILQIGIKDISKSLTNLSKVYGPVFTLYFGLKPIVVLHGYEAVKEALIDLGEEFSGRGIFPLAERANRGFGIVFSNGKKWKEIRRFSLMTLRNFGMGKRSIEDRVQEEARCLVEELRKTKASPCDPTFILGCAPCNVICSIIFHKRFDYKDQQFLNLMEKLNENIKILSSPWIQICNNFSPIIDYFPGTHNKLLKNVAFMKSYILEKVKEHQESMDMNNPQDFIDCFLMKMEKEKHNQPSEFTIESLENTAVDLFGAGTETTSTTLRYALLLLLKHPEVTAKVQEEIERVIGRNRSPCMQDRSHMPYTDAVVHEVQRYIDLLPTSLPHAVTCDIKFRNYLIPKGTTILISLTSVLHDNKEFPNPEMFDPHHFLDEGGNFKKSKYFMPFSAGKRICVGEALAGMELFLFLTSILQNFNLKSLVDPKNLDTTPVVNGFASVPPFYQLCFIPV
Description: as §1, §2, §3

| SMILES | solubility at 16 h [1] [µM] | Remaining rate (%) [2] [%] | inhibition at 10 min, 10 μmol/L [3] [%] | solubility at 1 h [4] [µM] | IC50 [5] [µM] | bioavailability [6] [%] | IC50 [7] [µM] | CYP3A4 (MDZ) MBI judgement (Shifted IC) [8] | IC50 [9] [µM] | IC50 [10] [µM] | IC50 [11] [µM] | IC50 [12] [µM] |
| --- | --- | --- | --- | --- | --- | --- | --- | --- | --- | --- | --- | --- |
| CS(=O)(=O)CC(=O)Nc1c2c(nn1CCCOC(F)(F)F)C[C@]1(CCc3cc(OCC(F)(F)F)ccc31)NC2=O [Compound I-253] | > 50 | 76.8 | 6.9 | – | – | – | – | – | – | – | – | – |
| Cc1ccc(-n2nc3c(c2NC(=O)CS(C)(=O)=O)C(=O)N[C@](C)(c2ccc(OCC(F)(F)F)cc2F)C3)nc1 [II-94] | > 50 | 98.4 | – | 3.4 (≈ 1.94 µg/mL) | 0.00381 | 73 | – | – | – | – | – | – |
| Cc1ccc(-n2nc3c(c2NC(=O)CS(C)(=O)=O)C(=O)N[C@@]2(CCc4cc(OCCCC(F)(F)F)ccc42)C3)nn1 [II-103] | > 50 | 95.6 | – | – | – | – | > 20 | Negative (a case that Shifted IC was 1.0 or less was regarded as Negative) | > 20 | > 20 | > 20 | > 20 |
| Cc1ccc(-n2nc3c(c2NC(=O)C2CS(=O)(=O)C2)C(=O)N[C@@]2(CCOc4cc(OCC(F)(F)F)ccc42)C3)nc1 [II-270] | > 50 | 99.9 | – | – | 0.00126 | – | – | – | – | – | – | – |
| CS(=O)(=O)CC(=O)Nc1c2c(nn1-c1ccc(F)cn1)C[C@]1(CCOc3cc(OCC(F)(F)F)ccc31)NC2=O [II-295] | > 50 | 102 | – | – | < 0.001 | – | – | – | – | – | – | – |
